Assay: Inhibition of HIV Replication: A recombinant NL-RLuc proviral clone was constructed in which a section of the nef gene from NL4-3 was replaced with the Renilla Luciferase gene. This virus is fully infectious and can undergo multiple cycles of replication in cell culture. In addition, the luciferous reporter provides a simple and easy method for quantitating the extent of virus growth and consequently, the antiviral activity of test compounds. The plasmid pNLRLuc contains the proviral NL-Rluc DNA cloned into pUC18 at the PvuII site. The NL-RLuc virus was prepared by transfection of 293T cells with the plasmid pNLRLuc. Transfections were performed using the LipofectAMINE PLUS kit from Invitrogen (Carlsbad, Calif.) according to the manufacturer and the virus generated was titered in MT-2 cells. For susceptibility analyses, the titrated virus was used to infect MT-2 cells in the presence of compound, and after 5 days of incubation, cells were processed and quantitated for virus growth by the amount of expressed luciferase. Assay media was RPMI 1640 supplemented with 10% heat inactivated fetal bovine serum (FBS), 100 units/ml penicillin G/100 units/ml streptomycin, 10 mM HEPES buffer pH 7.55 and 2 mM L-glutamine. The results from at least 2 experiments were used to calculate the EC50 values. Luciferase was quantitated using the Dual Luciferase kit from Promega (Madison, Wis.). […]
Assay type: cell-based
Settings: HEK-293T

Structure (SMILES)	EC50 [nM]
Cc1c([C@H](OC(C)(C)C)C(=O)O)c2n3cc(nc3c1C)-c1cccc(c1)-c1cc(F)c(F)cc1O[C@@H](C)COCCOC1(C)CCN2CC1	< 100
Cc1c([C@@H](OC(C)(C)C)C(=O)O)c2n3cc(nc3c1C)-c1cccc(c1)-c1cc(F)c(F)cc1O[C@@H](C)COCCOC1(C)CCN2CC1	550
